This note sets out measurements from ChEMBL document CHEMBL1123137 (J Med Chem, 1985).

The structures appear in SMILES notation.

Data set [1] concerns the target Adenosine receptor A2a (Canis lupus familiaris) (UniProt P11617). Put plainly: Molar potency ratio was evaluated.
Data set [2] is described as follows: HPLC capacity factor (k'). In kind it is ADME.

Sequence of Adenosine receptor A2a (Canis lupus familiaris) (P11617 whole entry, looked up): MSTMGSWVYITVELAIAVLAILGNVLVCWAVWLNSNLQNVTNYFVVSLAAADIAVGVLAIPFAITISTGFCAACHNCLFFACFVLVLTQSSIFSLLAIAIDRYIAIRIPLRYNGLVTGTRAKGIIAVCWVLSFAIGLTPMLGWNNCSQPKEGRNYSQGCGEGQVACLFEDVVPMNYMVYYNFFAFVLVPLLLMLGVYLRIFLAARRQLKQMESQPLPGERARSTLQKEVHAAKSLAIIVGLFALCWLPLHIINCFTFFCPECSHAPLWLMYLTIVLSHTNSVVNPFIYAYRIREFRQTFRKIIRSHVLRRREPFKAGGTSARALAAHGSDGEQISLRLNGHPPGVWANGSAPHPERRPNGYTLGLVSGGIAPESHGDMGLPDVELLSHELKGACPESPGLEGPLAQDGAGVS

Consider `OC[C@H]1O[C@@H](n2cnc3c(NC4CC5CCC4C5)ncnc32)[C@H](O)[C@@H]1O` (stereo in doubt; 57) [listing 1 of 2 here], for which the MPR in data set [1] amounted to 0.54.

Turning to `CNc1ncnc2c1ncn2[C@@H]1O[C@H](CO)[C@@H](O)[C@H]1O`, in data set [2], the “k'” value worked out at 0.07. The MPR in data set [1] is 0.05.

As for `CCNc1ncnc2c1ncn2C1O[C@H](CO)[C@@H](O)[C@H]1O` (some centres undefined), the “k'” value in data set [2] amounted to 0.29. In addition, the MPR in data set [1] stood at 0.15.

Take `C[C@@H](CNc1ncnc2c1ncn2[C@@H]1O[C@H](CO)[C@@H](O)[C@H]1O)c1ccccc1`: the “k'” value in data set [2] stood at 2.89. Further, the MPR in data set [1] was determined as 2.4.

Consider `OC[C@H]1O[C@@H](n2cnc3/c(=N\OCc4ccccc4)[nH]cnc32)[C@H](O)[C@@H]1O`, for which the “k'” value in data set [2] was found to be 1.04. The MPR in data set [1] was 0.42.

For `OC[C@H]1O[C@@H](n2cnc3c(NO)ncnc32)[C@H](O)[C@@H]1O`, the “k'” value in data set [2] was found to be 0.16.

As for `OC[C@H]1OC(n2cnc3c(NC(Cc4ccccc4)Cc4ccccc4)ncnc32)[C@H](O)[C@@H]1O` (some centres undefined), the “k'” value in data set [2] is on record as 14.83. Besides, the MPR in data set [1] worked out at 0.33.

For `OC[C@H]1O[C@@H](n2cnc3c(NC4CCCC4)ncnc32)[C@H](O)[C@@H]1O` [N6-CYCLOPENTYLADENOSINE], the “k'” value in data set [2] was 1.25. In addition, the MPR in data set [1] worked out at 1.8.

Take `OC[C@H]1O[C@@H](n2cnc3c(NC4C5CCC4CC5)ncnc32)[C@H](O)[C@@H]1O` (some centres undefined): the “k'” value in data set [2] is recorded as 3.5. Moreover, the MPR in data set [1] stood at 0.39.

Consider `CC(C)(C)CNc1ncnc2c1ncn2C1O[C@H](CO)[C@@H](O)[C@H]1O` (some centres undefined), for which the “k'” value in data set [2] is given as 2.5. In data set [1], the MPR worked out at 0.064.

Take `CC1(Nc2ncnc3c2ncn3C2O[C@H](CO)[C@@H](O)[C@H]2O)CCCC1` (some centres undefined): the “k'” value in data set [2] amounted to 5.02. In addition, the MPR in data set [1] came to 0.033.

On to `COc1ncnc2c1ncn2[C@@H]1O[C@H](CO)[C@@H](O)[C@@H]1O`, for which, in data set [2], the “k'” value came out at 0.16. Also, in data set [1], the MPR is 0.004.

As to `OC[C@H]1O[C@@H](n2cnc3/c(=N\O)[nH]cnc32)[C@H](O)[C@@H]1O`, the MPR in data set [1] was 0.16.

Take `OC[C@H]1O[C@@H](n2cnc3c(Cl)ncnc32)[C@H](O)[C@@H]1O`: in data set [1], the MPR came to 0.023.

`C[C@@H](Nc1ncnc2c1ncn2[C@@H]1O[C@H](CO)[C@@H](O)[C@H]1O)[C@@H](O)c1ccccc1`: the “k'” value in data set [2] worked out at 1.32. Further, in data set [1], the MPR was 2.9.

Regarding `CCCC(C)Nc1ncnc2c1ncn2C1O[C@H](CO)[C@@H](O)[C@H]1O` (some centres undefined), in data set [2], the “k'” value was 2.38. Further, in data set [1], the MPR stood at 1.1.

Turning to `CCCCCC(C)Nc1ncnc2c1ncn2C1O[C@H](CO)[C@@H](O)[C@H]1O` (some centres undefined), the “k'” value in data set [2] is on record as 8.54. The MPR in data set [1] is 0.31.

Regarding `OC[C@H]1OC(n2cnc3c(NCC4CC4)ncnc32)[C@H](O)[C@@H]1O` (some centres undefined), in data set [2], the “k'” value amounted to 0.71. In data set [1], the MPR is 0.58.

As to `C[C@@H](Cc1ccccc1)Nc1ncnc2c1ncn2[C@@H]1OC(CO)[C@@H](O)[C@H]1O` (single isomer, unassigned), the “k'” value in data set [2] was found to be 2.61.

As to `OC[C@H]1O[C@@H](n2cnc3cncnc32)[C@H](O)[C@@H]1O`, the MPR in data set [1] turned out to be 0.023.

As for `OC[C@H]1OC(n2cnc3c(NCCC4CCCCC4)ncnc32)[C@H](O)[C@@H]1O` (some centres undefined), in data set [2], the “k'” value was 8.92. Moreover, the MPR in data set [1] came out at 0.04.

For `CCCCCCC(C)Nc1ncnc2c1ncn2C1O[C@H](CO)[C@@H](O)[C@H]1O` (some centres undefined), the “k'” value in data set [2] was 16.88. The MPR in data set [1] turned out to be 0.052.

Consider `CN(C)c1ncnc2c1ncn2[C@@H]1O[C@H](CO)[C@@H](O)[C@H]1O`, for which, in data set [1], the MPR came to 0.001.

Take `C[C@@H](Nc1ncnc2c1ncn2[C@@H]1O[C@H](CO)[C@@H](O)[C@H]1O)[C@H](O)c1ccccc1`: the “k'” value in data set [2] was found to be 0.96. For the same compound, the MPR in data set [1] was 1.8.

Take `CC(C)(C)CCNc1ncnc2c1ncn2C1O[C@H](CO)[C@@H](O)[C@H]1O` (some centres undefined): in data set [2], the “k'” value was determined as 4.71. Further, the MPR in data set [1] came out at 0.084.

In the case of `CC[C@H](CO)Nc1ncnc2c1ncn2[C@@H]1O[C@H](CO)[C@@H](O)[C@H]1O`, the “k'” value in data set [2] is given as 0.4. In data set [1], the MPR was 0.77.

Regarding `C[C@H](Nc1ncnc2c1ncn2[C@@H]1O[C@H](CO)[C@@H](O)[C@H]1O)c1ccccc1`, in data set [2], the “k'” value amounted to 1.89. In addition, in data set [1], the MPR amounted to 0.2.

On to `NCCNc1ncnc2c1ncn2C1O[C@H](CO)[C@@H](O)[C@H]1O` (some centres undefined), for which the “k'” value in data set [2] is 0.11. The MPR in data set [1] was 0.072.

On to `OC[C@H]1O[C@@H](n2cnc3c(N[C@@H]4C[C@H]4c4ccccc4)ncnc32)[C@H](O)[C@@H]1O`, for which the “k'” value in data set [2] was 2.43. The MPR in data set [1] is 0.31.

As to `OC[C@H]1OC(n2cnc3c(NC(C4CC4)C4CC4)ncnc32)[C@H](O)[C@@H]1O` (some centres undefined), the “k'” value in data set [2] was found to be 2.68. For the same compound, the MPR in data set [1] stood at 1.5.

Regarding `NNc1ncnc2c1ncn2[C@@H]1O[C@H](CO)[C@@H](O)[C@H]1O`, the “k'” value in data set [2] is 0.14. Besides, the MPR in data set [1] stood at 0.046.

Regarding `CC(C)(Cc1ccccc1)Nc1ncnc2c1ncn2C1O[C@H](CO)[C@@H](O)[C@H]1O` (some centres undefined), the “k'” value in data set [2] was found to be 7.43. In addition, the MPR in data set [1] stood at 0.011.

On to `CC[C@@H](CO)Nc1ncnc2c1ncn2[C@@H]1O[C@H](CO)[C@@H](O)[C@H]1O`, for which the “k'” value in data set [2] was determined as 0.52. Besides, the MPR in data set [1] amounted to 0.12.

Turning to `OC[C@H]1O[C@@H](n2cnc3c(N[C@H]4C[C@@H]4c4ccccc4)ncnc32)[C@H](O)[C@@H]1O`, in data set [2], the “k'” value is reported as 2.36. The MPR in data set [1] stood at 0.7.

For the compound `CCC(CNc1ncnc2c1ncn2C1O[C@H](CO)[C@@H](O)[C@H]1O)c1ccccc1` (some centres undefined), in data set [2], the “k'” value stood at 5.89. Also, the MPR in data set [1] stood at 3.3.

In the case of `C[C@@H](CCc1ccccc1)Nc1ncnc2c1ncn2[C@@H]1O[C@H](CO)[C@@H](O)[C@H]1O`, the “k'” value in data set [2] worked out at 6.47. In addition, the MPR in data set [1] is 0.05.

As to `OC[C@H]1O[C@@H](n2cnc3c(NC4CC5CCC4C5)ncnc32)[C@H](O)[C@@H]1O` (stereo in doubt; 58), the MPR in data set [1] is 0.55.

As to `OC[C@H]1O[C@@H](n2cnc3c(NC4CCC4)ncnc32)[C@H](O)[C@@H]1O`, the “k'” value in data set [2] turned out to be 0.2. In data set [1], the MPR is 1.6.

On to `OC[C@H]1O[C@@H](n2cnc3c(NC4CC5CCC4C5)ncnc32)[C@H](O)[C@@H]1O` (stereo in doubt; 57) [listing 2 of 2 here], for which, in data set [2], the “k'” value came to 2.63.

Take `CCCCCCNc1ncnc2c1ncn2C1O[C@H](CO)[C@@H](O)[C@H]1O` (some centres undefined): the “k'” value in data set [2] was 5.88. Besides, the MPR in data set [1] was determined as 0.2.

Turning to `C[C@@H](CO)Nc1ncnc2c1ncn2C1O[C@H](CO)[C@@H](O)[C@H]1O` (some centres undefined), in data set [2], the “k'” value amounted to 0.28. For the same compound, in data set [1], the MPR amounted to 0.098.

Consider `OC[C@H]1O[C@@H](n2cnc3c(NC4CC4)ncnc32)[C@H](O)[C@@H]1O`, for which the “k'” value in data set [2] was found to be 0.2. In addition, in data set [1], the MPR was 0.38.

On to `C[C@H](CCc1ccccc1)Nc1ncnc2c1ncn2[C@@H]1O[C@H](CO)[C@@H](O)[C@H]1O`, for which the “k'” value in data set [2] was 6.11. For the same compound, the MPR in data set [1] stood at 0.19.

Turning to `C#CCNc1ncnc2c1ncn2C1O[C@H](CO)[C@@H](O)[C@H]1O` (some centres undefined), in data set [2], the “k'” value was determined as 0.21. Moreover, the MPR in data set [1] turned out to be 0.23.

With `CCCCCNc1ncnc2c1ncn2[C@@H]1O[C@H](CO)[C@@H](O)[C@H]1O`, the “k'” value in data set [2] came out at 3.08. Besides, in data set [1], the MPR is 0.36.

As for `CN(Nc1ncnc2c1ncn2C1O[C@H](CO)[C@@H](O)[C@H]1O)c1ccccc1` (some centres undefined), the “k'” value in data set [2] amounted to 0.93. Also, the MPR in data set [1] was 1.8.

For `Cc1ncnc2c1ncn2[C@@H]1O[C@H](CO)[C@@H](O)[C@H]1O`, the MPR in data set [1] turned out to be 0.007.
